Test results published in publication PMC2813863, “In Vivo Evaluation of α7 Nicotinic Acetylcholine Receptor Agonists [^11C]A-582941 and [^11C]A-844606 in Mice and Conscious Monkeys” (PLoS ONE, 2010).
Where “and” joins values, the source holds several entries; their conditions need not be identical. Equal entries are not always repeated. Where two headings read alike, the source gives them in different places.

What was measured:
[1] = target: α4β2; conditions: read-out: K i α4β2; cited from earlier work
[2] = target: α4β2; conditions: cited from earlier work
[3] = target: α7 nAChRs (Mus musculus, UniProt P49582); conditions: in vivo
Method: In the other group of mice, a blocking experiment to determine the α7 nAChRs-specific regional brain uptake of the tracers was carried out. Each tracer (2 MBq/0.055–0.096 nmol) was co-injected with each of the following blockers into mice, and 15 ([^11C]A-582941) or 30 ([^11C]A-844606) min later the mice were killed (n = 5) and the tissue uptake of ^11C was expressed as the %ID/g. […] Each blocker was dissolved in 1N HCl to 40 mg/ml and diluted up to 0.4 mg/ml with saline. The co-injected dose was 1 mg/kg. In the control mice the same amount of 0.01 N HCl in saline was co-injected.

[4] = target: heteromeric α4β2 subtypes; conditions: rat brain membranes; read-out: K i, [^3H]cytisine binding; cited from earlier work
[5] = tested on: >75 binding sites; conditions: 10 µM, exception 5-HT3 receptors; cited from earlier work
[6] = cited from earlier work
[7] = tested on: 5-HT3 receptors; conditions: cited from earlier work
[8] = target: 5-HT3 receptors; assay: Displacement of [^3H]-BRL 43694 (Granisetron) binding
[9] = type: in vivo, mice; conditions: mouse, in vivo, iv
Method: Each tracer was intravenously injected into mice, and then the animals were killed by cervical dislocation at 1, 5, 15, 30 and 60 min after injection (n = 4). The body weight of the mice was 34.7±1.2 g. The injected doses of tracers were 2 MBq/0.049–0.051 nmol. Blood was collected by heart puncture and tissues were harvested. The carbon-11 in the samples was counted with an auto-gamma-counter (LKB Wallac Compu-gamma 1282CS, Turku, Finland) and the tissues were weighed. The tissue uptake of carbon-11 was expressed as the %ID/g.

[10] = target: α7 nAChRs (Macaca mulatta, UniProt Q866A2); conditions: rhesus monkey, in vivo
Text: Four young-adult male rhesus monkeys (Macaca mulatta) weighing from 4 to 6 kg were used for PET measurements. The monkeys were trained for the protocol as described previously. The magnetic resonance images (MRI) of all monkeys were obtained with a Toshiba MRT-50A/II (0.5T) under anesthesia with pentobarbital. The stereotactic coordinates of PET and MRI were adjusted based on the orbitomeatal (OM) line with monkeys secured in a specially designed head holder. At least 1 month before the PET study, an acrylic plate, with which the monkey was fixed to the monkey chair, was attached to the head under pentobarbital anesthesia as described previously.
PET data were collected on a high-resolution PET scanner (SHR-7700; Hamamatsu Photonics K.K., Hamamatsu, Japan). The camera consists of 16 detector rings and acquires 20 slices at a center-to-center interval of 3.6 mm with a transaxial resolution of 2.6 mm full width at half maximum. After an overnight fast, the monkey was fixed to the monkey chair with stereotactic coordinates aligned parallel to the OM line. A cannula was implanted in the posterior tibial vein, and [^11C]A-582941 or [^11C]A-844606 (1152–1336 MBq/26.8–63.1 nmol) was injected into the monkey through the venous cannula. PET images were acquired over 91 min (10 sec ×6 frames, 30 sec ×6 frames, 1 min ×12 frames, and 3 min ×25 frames). PET scans were reconstructed using a filtered backprojection method in a 100×100 matrix, with a voxel size of 1.2 mm ×1.2 mm ×3.6 mm. Summed image of late phase (from 70 to 91 min post-injection) was calculated as a static SUV (activity/ml tissue)/(injected activity/g body weight) image. Each MRI was coregistered to an early (from 0 to 20 min) summed image using normalized mutual information, and ROIs were placed on the summed image with reference to the coregistered MRI. Three monkeys underwent [^11C]A-582941 scan morning, and then two of the three monkeys underwent [^11C]A-844606 afternoon (baseline). Within 6 months the last one of the three monkeys underwent two [^11C]A-844606 scans in the baseline (morning) and blocking (afternoon) conditions 30 min after injection of SSR180711 (5.0 mg/kg, i.v.), and the fourth monkey underwent two [^11C]A-582941 scans in the baseline and blocking conditions in the same way.
For the semi-quantitative analysis of PET data, arterial samples were obtained every 8 sec from injection to 64 sec, and then again at 1.5, 2.5, 4, 6, 10, 20, 30, 45, 60, and 90 min after each tracer injection. Blood samples were centrifuged to separate the plasma, weighed, and subjected to radioactivity measurement. For metabolite analysis, methanol was added to some plasma samples, the resulting solutions were centrifuged, and the supernatants were developed with TLC plates (AL SIL G/UV; Whatman, Kent, UK) using a mobile phase of dichloromethane/diethyl ether/ethanol/triethylamine (20/20/2/2, v/v/v/v). At each sampling time point, the ratio of radioactivity in the unmetabolized fraction to that in the total plasma (metabolite plus unmetabolite) was determined using a phosphoimaging plate (BAS-1500 MAC; Fuji Film Co., Tokyo, Japan). The pTACs corrected for metabolite were obtained. The tTACs in each region of interest (ROI) in the brain were calculated as the %ID/ml or as a standardized uptake value (SUV), (activity/ml tissue)/(injected activity/g body weight). Using the tTACs and the metabolite-corrected pTAC, the V T for each tracer was evaluated by Logan graphical analysis.

[11] = target: α7 nAChRs; conditions: read-out: KD for α-bungarotoxin; cited from earlier work

α7 nAChRs (Mus musculus, UniProt P49582), sequence (P49582 23-502): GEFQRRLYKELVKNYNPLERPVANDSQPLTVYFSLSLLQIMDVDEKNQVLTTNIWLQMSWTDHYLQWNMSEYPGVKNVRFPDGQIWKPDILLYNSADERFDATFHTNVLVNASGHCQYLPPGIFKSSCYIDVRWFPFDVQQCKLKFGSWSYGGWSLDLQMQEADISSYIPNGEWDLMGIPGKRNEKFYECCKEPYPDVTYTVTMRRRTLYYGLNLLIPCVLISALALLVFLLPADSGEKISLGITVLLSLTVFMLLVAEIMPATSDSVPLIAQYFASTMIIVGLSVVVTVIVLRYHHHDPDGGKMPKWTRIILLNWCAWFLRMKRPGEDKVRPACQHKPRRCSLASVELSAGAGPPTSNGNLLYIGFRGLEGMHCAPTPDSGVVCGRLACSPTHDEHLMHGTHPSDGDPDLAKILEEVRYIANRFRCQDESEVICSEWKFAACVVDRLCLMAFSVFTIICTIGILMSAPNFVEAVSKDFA
α7 nAChRs (Macaca mulatta, UniProt Q866A2), sequence (Q866A2 23-502): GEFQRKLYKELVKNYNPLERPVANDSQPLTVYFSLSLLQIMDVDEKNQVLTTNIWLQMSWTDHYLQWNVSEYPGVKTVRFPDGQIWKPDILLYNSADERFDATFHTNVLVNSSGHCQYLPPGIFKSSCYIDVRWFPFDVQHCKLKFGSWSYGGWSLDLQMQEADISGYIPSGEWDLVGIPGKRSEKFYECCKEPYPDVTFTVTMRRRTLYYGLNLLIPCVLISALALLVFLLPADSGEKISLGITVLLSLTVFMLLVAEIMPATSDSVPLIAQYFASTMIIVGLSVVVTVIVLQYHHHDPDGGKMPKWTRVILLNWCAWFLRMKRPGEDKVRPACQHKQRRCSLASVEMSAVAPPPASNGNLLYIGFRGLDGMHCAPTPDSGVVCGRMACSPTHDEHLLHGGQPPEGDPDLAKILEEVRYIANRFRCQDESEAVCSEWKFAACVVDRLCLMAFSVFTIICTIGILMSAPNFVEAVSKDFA

## c1cncc(OC[C@@H]2CCN2)c1 [A-85380, 3-(2(S)-azetidynilmethoxy)pyridine]
[1]
  Ki: 0.05 nM
[2]; read-out: K i α4β2
  Ki: 0.04 nM
[3]
  % Injected dose/g tissue, Blood: 0.85±0.06 % Injected dose/g tissue and 0.54±0.12 % Injected dose/g tissue
  % Injected dose/g tissue, Cerebellum: 3.76±0.50 % Injected dose/g tissue and 6.22±1.26 % Injected dose/g tissue
  % Injected dose/g tissue, Cerebral cortex: 4.53±0.61 % Injected dose/g tissue and 7.57±1.48 % Injected dose/g tissue
  % Injected dose/g tissue, Hippocampus: 3.92±0.54 % Injected dose/g tissue and 5.58±1.26 % Injected dose/g tissue
  % Injected dose/g tissue, Hypothalamus: 3.97±0.65 % Injected dose/g tissue and 5.00±0.96 % Injected dose/g tissue
  % Injected dose/g tissue, Medulla oblongata: 3.99±0.49 % Injected dose/g tissue and 5.46±1.15 % Injected dose/g tissue
  % Injected dose/g tissue, Midbrain: 4.52±0.68 % Injected dose/g tissue and 6.84±1.71 % Injected dose/g tissue
  % Injected dose/g tissue, Striatum: 4.33±0.75 % Injected dose/g tissue and 6.47±1.38 % Injected dose/g tissue
  % Injected dose/g tissue, Whole brain: 4.26±0.57 % Injected dose/g tissue and 6.64±1.33 % Injected dose/g tissue

## CN1CC2CN(c3ccc(-c4ccccc4)nn3)CC2C1 (stereo not drawn) [A-582941, 2-methyl-5-[6-phenylpyridazine-3-yl]octahydropyrrolo[3,4-c]pyrrole]
[4]
  Ki: > 100000 nM
[5]
  displacement of binding of >75 binding sites: did not show significant displacement
[6]
  clog P: 2.3
  pKa, N-methylated tertiary amine: 8.75
  pKa, aminopyridazine: 4.44
[6]; pH 7.4
  log D at pH 7.4: 1.0
[7]; at 10 µM
  displacement of [^3H]-BRL 43694 (Granisetron) binding: > 85%
[7]; read-out: K i for 5-HT3 receptors
  Ki: 154 nM
[8]
  K i for 5-HT3 receptors relative to that for α7 nAChRs: ~15 fold
[3]
  % Injected dose/g tissue, Blood: 0.61±0.07 % Injected dose/g tissue
  % Injected dose/g tissue, Cerebellum: 5.17±0.97 % Injected dose/g tissue
  % Injected dose/g tissue, Cerebral cortex: 8.38±1.22 % Injected dose/g tissue
  % Injected dose/g tissue, Hippocampus: 6.48±1.31 % Injected dose/g tissue
  % Injected dose/g tissue, Hypothalamus: 4.76±1.17 % Injected dose/g tissue
  % Injected dose/g tissue, Medulla oblongata: 5.58±1.26 % Injected dose/g tissue
  % Injected dose/g tissue, Midbrain: 5.80±1.46 % Injected dose/g tissue
  % Injected dose/g tissue, Striatum: 6.81±1.05 % Injected dose/g tissue
  % Injected dose/g tissue, Whole brain: 6.71±1.09 % Injected dose/g tissue

## O=C(Oc1ccc(Br)cc1)N1CCN2CCC1CC2 [SSR180711]
[2]; human receptor
  IC50: > 50000 nM
[3]
  % Injected dose/g tissue, Cerebellum: 3.32±0.25 % Injected dose/g tissue and 5.10±0.69 % Injected dose/g tissue
  % Injected dose/g tissue, Cerebral cortex: 5.02±0.46 % Injected dose/g tissue and 8.43±1.07 % Injected dose/g tissue
  % Injected dose/g tissue, Hippocampus: 4.63±0.51 % Injected dose/g tissue and 6.26±0.64 % Injected dose/g tissue
  % Injected dose/g tissue, Hypothalamus: 3.49±0.36 % Injected dose/g tissue and 4.74±0.70 % Injected dose/g tissue
  % Injected dose/g tissue, Medulla oblongata: 3.15±0.14 % Injected dose/g tissue and 5.35±0.33 % Injected dose/g tissue
  % Injected dose/g tissue, Midbrain: 3.91±0.45 % Injected dose/g tissue and 6.69±0.79 % Injected dose/g tissue
  % Injected dose/g tissue, Striatum: 4.19±1.04 % Injected dose/g tissue and 7.32±1.84 % Injected dose/g tissue
  % Injected dose/g tissue, Whole brain: 4.21±0.39 % Injected dose/g tissue and 6.82±0.64 % Injected dose/g tissue

## [11CH3]N1CC2CN(c3ccc4oc5ccccc5c(=O)c4c3)CC2C1 (stereo not drawn) [[^11C]A-844606, 2-(5-[^11C]Methyl-hexahydro-pyrrolo[3,4-c]pyrrol-2-yl)-xanthene-9-one]
[9]
  time of peak radioactivity in the brain: 30 min
[10]; male
  V T Baseline, Cerebellum: 95.9 mL/g
  V T Baseline, Frontal cortex: 132.2 mL/g
  V T Baseline, Hippocampus: 123.1 mL/g
  V T Baseline, Thalamus: 141.5 mL/g
  V T SSR180711, Cerebellum: 52.8 mL/g
  V T SSR180711, Frontal cortex: 65.3 mL/g
  V T SSR180711, Hippocampus: 57.5 mL/g
  V T SSR180711, Thalamus: 69.3 mL/g
  V T, cerebellum (mean ± SD): 95.2±32.8
  V T, cerebellum (range): 62.1–127.7
  V T, frontal cortex (mean ± SD): 130.9±40.4
  V T, frontal cortex (range): 89.8–170.6
  V T, hippocampus (mean ± SD): 118.5±33.6
  V T, hippocampus (range): 82.9–149.6
  V T, thalamus (mean ± SD): 138.6±42.3
  V T, thalamus (range): 95.0–179.4
  time at which brain radioactivity reached a plateau: 40 to 60 min
  time at which radioactivity in the cerebellum reached a plateau: 40 min
[10]
  % decrease of V T, Cerebellum: 45.0%
  % decrease of V T, Frontal cortex: 50.6%
  % decrease of V T, Hippocampus: 53.3%
  % decrease of V T, Thalamus: 51.0%
  decrease of V T by pretreatment with SSR180711: ~50%
[3]
  % Injected dose/g tissue, Blood: 0.57±0.11 % Injected dose/g tissue
  % Injected dose/g tissue, Cerebellum: 4.54±0.63 % Injected dose/g tissue
  % Injected dose/g tissue, Cerebral cortex: 7.63±0.98 % Injected dose/g tissue
  % Injected dose/g tissue, Hippocampus: 4.46±0.90 % Injected dose/g tissue
  % Injected dose/g tissue, Hypothalamus: 4.21±1.55 % Injected dose/g tissue
  % Injected dose/g tissue, Medulla oblongata: 5.25±0.95 % Injected dose/g tissue
  % Injected dose/g tissue, Midbrain: 5.43±0.75 % Injected dose/g tissue
  % Injected dose/g tissue, Striatum: 5.01±2.00 % Injected dose/g tissue
  % Injected dose/g tissue, Whole brain: 5.83±0.56 % Injected dose/g tissue

## α-bungarotoxin
[11]
  Kd: 1.67 nM
